In the data set the test system is healthy male subjects. Briefly: Safety assessments (adverse events, laboratory tests, ECG, vital signs). The data set is classed as in vivo, human. The source says:
The Statistics Department at Takeda Development Center Americas, Inc., generated a randomization schedule before the start of the study, and this randomization schedule maintained the investigational drug blind. During randomization, subjects were assigned a four-digit randomization sequence that encoded assignment of subjects to the treatment schedule. Subjects were randomized to one of nine treatment schedules and received placebo + ketamine (regimen A) and two of the following three treatment regimens: 3 mg of TAK-063 + ketamine (regimen B), 30 mg of TAK-063 + ketamine (regimen C), and 300 mg of TAK-063 + ketamine (regimen D). […] Treatment sequences are presented in Online Resource Supplementary Table S1. The study consisted of multiple visits with a different treatment protocol on each visit. The visits were standardized and included a screening period (day − 28 to day − 2), check-in (day − 1), a treatment period (days 1), completion of treatment visit (day 2), and a follow-up visit (day 14 ± 3 days after last TAK-063 dose). After each treatment period, subjects stayed overnight at the study site for observation and were discharged on day 2. Each participant completed the study when they completed the follow-up visit after their last treatment2.
AEs, clinical laboratory results, ECG, vital signs, and suicide assessments were recorded after administration of TAK-063 and throughout the remainder of the study. Intensity of AEs was classified as mild, moderate, and severe, and each AE was assessed for association with study drug. AEs were assessed throughout the 2-day study visit, at the three treatment visits, at the study exit, and at the follow-up visit. ECG, vital signs, and clinical laboratory results were assessed at visit 1 during screening, day − 1, day 1 of each treatment period, day 2 of period 3 (study exit), the early termination visit, and the follow-up visit.
In this study, the safety set, used for demographic and safety evaluations, included subjects who receive at least one dose of study medication. The PK set included all subjects in the safety set with at least one available drug concentration measurement. The PD set included all subjects in the safety set and with at least one valid PD assessment.

[1] abbreviates: all 27 subjects, TAK-063 or placebo followed by ketamine.
[2] abbreviates: all subjects, most frequently reported AEs.

Structures are written as SMILES.

In the case of `COc1cn(-c2ccc(-n3cccn3)cc2F)nc(-c2ccnn2-c2ccccc2)c1=O` [TAK-063], the “EPS-type AE in one subject” value (30 mg) is listed as “restlessness”. Under “300 mg”, the “EPS-type AE in one subject” value is “muscle tightness and restlessness”; the “discontinuation because of EPS” value is on record as “One subject”. The “tolerability of the 300-mg dose” value (300 mg, led to change of dose to 10 mg) is “higher than expected rates of dystonia and nausea”. In addition, where the note is “TAK-063 group overall”, the “subjects with AEs consistent with extrapyramidal symptoms (EPS)” value is 8.0% and the “subjects with AEs consistent with extrapyramidal symptoms (EPS) (number)” value is listed as “two”. In addition, under setting [1], the “subjects who experienced AEs related to the study drug” value stood at 88.9% and the “subjects who experienced AEs related to the study drug (number)” value was found to be 24 subjects. Moreover, under “all subjects”, the “severity of drug-related AEs” value was “mild to moderate”. For the same molecule, under setting [2], the fatigue is given as 25.9%, the nausea stood at 40.7%, the somnolence came to 40.7% and the vomiting is reported as 63.0%. The “clinically significant changes from baseline in vital signs, clinical laboratory tests and 12-lead ECGs” value (baseline to post dose) is recorded as “No changes”. Also, under “during the study”, the “deaths or serious AEs” value is given as “No deaths or serious AEs”. Moreover, for the setting “in vivo”, the “participants discontinuing study drug because of AEs” value was “one”. Further, under “single oral doses with ketamine”, the “overall safety and tolerability” value was “safe and well tolerated”.
